{"source": "paper PMC6561471", "about": "(The Lancet. Oncology, 2018)", "key": {"[1]": {"test_system": "patients with recurrent or metastatic HNSCC", "assay": "adverse events graded by NCI-CTCAE version 4.0, all cycles of treatment"}, "[2]": {"test_system": "nasopharyngeal cancer", "conditions": "pazopanib tablet formulation 800 mg/day, monotherapy; cited from earlier work"}, "[3]": {"conditions": "suspension formulation compared with tablet; cited from earlier work"}, "[4]": {"test_system": "patients with recurrent or metastatic HNSCC", "assay": "phase 1b dose escalation", "assay_type": "in vivo", "conditions": "with fixed dose of cetuximab; doses 200-800 mg/day; assessed in cycle 1"}, "[5]": {"test_system": "recurrent or metastatic HNSCC", "conditions": "single-arm study; cited from earlier work"}, "[6]": {"test_system": "recurrent or metastatic HNSCC", "conditions": "first-line treatment; cited from earlier work"}}, "note": "“Also recorded” adds a separate entry of the source."}
{"molecule": "Cc1ccc(Nc2nccc(N(C)c3ccc4c(C)n(C)nc4c3)n2)cc1S(N)(=O)=O", "note": "[pazopanib]", "values": [{"measurement": "grade 4 adverse events attributable to pazopanib", "setting": "[1]; all 31 patients", "value": "no grade 4 adverse events"}, {"measurement": "most common grade 3 adverse events attributable to pazopanib", "setting": "[1]; all cycles", "value": "hypertension, anaemia, fatigue, hypoalbuminaemia, and venous thromboembolism; also recorded: hypertension, anaemia, fatigue, hypoalbuminaemia, neutropenia, and diarrhoea"}, {"measurement": "disease control, patients", "setting": "[2]", "value": 55, "unit": "%"}, {"measurement": "decrease of time taken to reach Cmax (Tmax)", "setting": "[3]", "value": 50, "unit": "%"}, {"measurement": "increase of area under the curve (AUC)(0–72 h)", "setting": "[3]", "value": 33, "unit": "%"}, {"measurement": "increase of maximum plasma concentration (Cmax)", "setting": "[3]", "value": 29, "unit": "%"}, {"measurement": "maximum tolerated dose of pazopanib", "setting": "[4]", "value": "not reached"}]}
{"molecule": "CNC(=O)c1cc(Oc2ccc(NC(=O)Nc3ccc(Cl)c(C(F)(F)F)c3)cc2)ccn1", "note": "[sorafenib]", "values": [{"measurement": "activity as monotherapy", "setting": "[5]", "value": "modest activity"}]}
{"molecule": "CCN(CC)CCNC(=O)c1c(C)[nH]c(/C=C2\\C(=O)Nc3ccc(F)cc32)c1C", "note": "[sunitinib]", "values": [{"measurement": "activity as monotherapy", "setting": "[5]", "value": "modest activity"}]}
{"molecule": "bevacizumab", "values": [{"measurement": "effect of addition of bevacizumab to chemotherapy", "setting": "[6]", "value": "improvement of progression-free survival and overall survival"}]}
